“Also recorded” adds a separate entry of the source.
What was measured:
muscle regeneration [1] = test: Systemic oxytocin or oxytocin antagonist and muscle regeneration in mice; type: in vivo, mouse; details: OT alone
Text: OXTR agonists may be used to treat and prevent sarcopenia, improve muscle regeneration after injury and prevent muscle mass loss observed after long term immobilization (bed rest or cast), as well as low gravity (space travel). Specifically, oxytocin is more desirable than other drugs on the market or under development, since it is physiologic, has virtually no side effects and is already FDA approved to induce labor in pregnant women and in clinical trials to treat children with autism. The plasmatic level of oxytocin decreases with age in mice. […] Confirming the dependence of muscle maintenance and repair on oxytocin, mice with a knock out in oxytocin have defective muscle regeneration and premature sarcopenia (loss of muscle tissue). Oxytocin is also known to prevent osteoporosis and regulate fat distribution after menopause. Oxytocin inhibits p16 (marker and effector of senescence) in adult stem cells, thereby enabling their productive responses to maintain and repair tissues.

[2] = tested on: TA muscle regeneration after CTX injury; test: In vivo epistasis between TGFβ1 and oxytocin: TA muscle regeneration after CTX injury (FIG. 4A-4B); set-up: species or system mouse; details: young (3 mo) mice, CTX-injured TA, 5 days after injury; for Muscle regeneration after injury, effect of ectopic TGFβ1 alone (histology): recombinant TGFβ1 20 ng/muscle
Description: Further support for the advantages of the combined administration of OT and Alk5i comes from the observation of epistasis between the TGF-beta1 and oxytocin.
FIGS. 4A and 4B show the in vivo epistasis between TGFβ1 and Oxytocin. Young (3 mo) mouse TA muscles were injured with CTX with or without recombinant TGFβ1 (20 ng/muscle), and mice were administered 1 μg/g OT or vehicle (HBSS) by subcutaneous delivery into circulation. TGFβ1 or vehicle and OT were administered again the following day. Mice were sacrificed 5 days after injury and muscle sectioned for histological examination (with Hematoxilin and Eosin staining) in 10 um cryosections. All samples were processed and analyzed in a blinded study. […] FIG. 4B depicts the regenerative index of the three different conditions. The regenerative index was quantified by expressing the number of newly formed fibers over total nuclei in the injury/regeneration sites; *p<0.01.

[3] = tested on: muscle stem cells (satellite cells); details: cited from earlier work
muscle regeneration [4] = details: Elabd et al. 2014, cited from earlier work
[5] = tested on: muscle stem cells (satellite cells); test: Effects of OT and OTA on muscle stem (satellite) cells; type: cell-based, mouse
[6] = tested on: rat neural precursor cells; test: Neural precursor cell proliferation in basal medium, BrdU pulse (FIG. 3C); type: cell-based; details: rat neural precursor cells in basal medium (DMEM/F12/N2)
Text: (§1) FIGS. 3A-3C depict dose-curve matrices of OT, Alk5i and OT+Alk5i effects on myogenic and neurogenic cell proliferation. FIGS. 3A-3C show the effect of the indicated concentrations of OT (in nM) and Alk5-inhibitor (a5i, μM) on primary myoblasts in Opti-MEM (FIG. 3A); on old satellite cells isolated from 3 DPI muscle in Opti-MEM with 5% old mouse serum (FIG. 3B); and on rat neural precursor cells in basal medium (DMEM/F12/N2) (FIG. 3C). Cells were pulsed with BrdU, and BrdU immunodetection and Hoechst staining were performed. Percent proliferating cells (myogenic and neurogenic) were quantified (manually, by ImageJ and by Molecular Devices ImageXpress Micro automated epifluorescence imager, with automated cell quantification by MetaXpress). Shown is the percent proliferation visualized as a topographic map.
Isolation and Culture of Neural Progenitor Cells: Primary rat neural progenitor cells (NPCs) isolated from the hippocampi of Fisher 344 rats (Charles River) will be maintained in DMEM/F12 (Life Technologies) containing N2 supplement (Life Technologies) and 10 ng/mL FGF-2 (PeproTech) on laminin (Roche) and polyornithine (Sigma) coated tissue culture plates. […]

primary myoblasts = test: Primary myoblast proliferation, BrdU pulse, OT/Alk5i dose matrix (FIG. 3A); type: cell-based, mouse; details: primary myoblasts in Opti-MEM (low mitogen), OT in nM, Alk5i in μM
Text: as §1
Isolation of Muscle Stem Cells and Primary Myoblasts: Tibialis Anterior (TA) and Gastrocneimus (Gastroc) muscles will undergo enzymatic digestion with collagenase type II. Fat pads and tendons will be removed and rounds of muscle trituration and sedimentation will purify myofibers with associated muscle stem (satellite) cells. Myofibers will be incubated with collagenase type II and dispase; suspensions will be vortexed to release satellite cells from digested fibers, passed through a cell strainer and pre-plated on uncoated dishes for 20 minutes at 37° C., 5% CO2. […]

CC[C@H](C)[C@@H]1NC(=O)[C@H](Cc2ccc(O)cc2)NC(=O)[C@@H](N)CSSC[C@@H](C(=O)N2CCC[C@H]2C(=O)N[C@@H](CC(C)C)C(=O)NCC(N)=O)NC(=O)[C@H](CC(N)=O)NC(=O)[C@H](CCC(N)=O)NC1=O [OT, oxytocin]
Muscle maintenance and repair in old mice (muscle regeneration [1]): significantly enhances muscle maintenance and repair | Muscle regeneration after injury in mice given ectopic TGFβ1 (histology) ([2]; TGFβ1 20 ng/muscle, OT 1 μg/g subcutaneous): rescued muscle regeneration; also recorded: rescues the regeneration of young muscle injected with TGFβ1 | p16 (marker and effector of senescence) in adult stem cells [3]: inhibits p16 | Muscle regeneration in old mice (muscle regeneration [4]; old mice, short term subcutaneous injection (systemic delivery)): able to restore muscle regeneration | pERK in muscle stem cells ([5]; muscle stem cells): activates pERK | CDKIs in satellite cells ([5]; old satellite cells): attenuates CDKIs | Proliferation and myogenicity of old satellite cells ([5]; old satellite cells): enhances proliferation and myogenicity | OtKO satellite cell decline ([5]; satellite cells of oxytocin knock out (OtKO) mice): rescues the OtKO satellite cell decline

COc1cc(OC2CCN(C(C)=O)CC2)ccc1C(=O)N1CCC(N2C(=O)OCc3ccccc32)CC1 [OTA]
Muscle regeneration potential in young mice (muscle regeneration [4]; young mice, injection of oxytocin antagonist): prematurely ages their muscle regeneration potential | Myogenicity of young satellite cells ([5]; young satellite cells): inhibits myogenicity

Cc1cccc(-c2n[nH]cc2-c2ccc3ncccc3n2)n1 [Alk5i, 2-(3-(6-Methylpyridin-2-yl)-1H-pyrazol-4-yl)-1,5-naphthyridine]
Expression of CDKIs (aged mice; aged mice): attenuates the expression of CDKIs | Myogenesis and neurogenesis (aged mice; aged/old mice, systemic Alk5i alone, listed as ALK5 inhibitor): simultaneously rejuvenates myogenesis and neurogenesis | Inflammation (aged mice; delivered systemically into 2-year old mice): reduces inflammation | pSmads in Sox-2+ cells of SGZ (aged mice; systemically administered): down-modulating pSmads | Percent proliferating cells (BrdU), NPC proliferation [6]: diminishes proliferation of NPCs | Percent proliferating cells (BrdU), myoblast proliferation (primary myoblasts): bi-phasic effect on myoblast proliferation

TGFβ1: recombinant TGFβ1, given ectopically into injured muscle (R&D systems)
Muscle regeneration after injury, effect of ectopic TGFβ1 alone (histology) [2]: promotes scarring | Muscle regeneration after injury, effect of ectopic TGFβ1 alone (histology) ([2]; listed as TGF-beta 1): inhibited muscle regeneration

— patent US10265372B2, “Molecular composition for enhancing and rejuvenating maintenance and repair of mammalian tissues” (The Regents of the University of California, priority 2014, dated 2019)
